Assay results as given in patent US8039454B2, “Macrolide compounds with antibiotic and antineoplastic properties” (Weihe Pharmaceuticals Co. Ltd., priority 2006, dated 2011).
Values after ≈ are worked out from the molar mass of the structure shown.

Tests used:
Experiment in all cases: MIC by standard dilution method in Tryptic Soy Broth
Format in all cases: cell-based
Escherichia coli = conditions: 35° C., 24 h incubation
Method: (§1) To determine minimum inhibitory concentration (MIC) of the WBI-3001, the standard dilution method was used. The tests were conducted at 35° C. and the MICs were determined after 24 h incubation.

[1] = tested on: S. aureus MSRA (clinical isolates of methicillin-resistant strain); conditions: Staphylococcus aureus, 24 h
Method: as §1

Streptococcus pyogenes = conditions: 35° C., 24 h incubation
Method: as §1

Enterococcus faecalis = conditions: 35° C., 24 h incubation
Method: as §1

Pseudomonas aeruginosa = conditions: 35° C., 24 h incubation
Method: as §1

[2] = tested on: Staphylococcus epidermidis; conditions: 35° C., 24 h incubation
Method: as §1

## CC[C@H]1OC(=O)[C@H](C)[C@@H](O[C@H]2C[C@@](C)(OC)[C@@H](O)[C@H](C)O2)[C@H](C)[C@@H](O[C@@H]2O[C@H](C)C[C@H](N(C)C)[C@H]2O)[C@](C)(O)C[C@@H](C)C(=O)[C@H](C)[C@@H](O)[C@]1(C)O [Erythromycin]
Escherichia coli
  MIC: 1 µg/mL (≈ 1.36 µM)
[1]
  MIC: > 32 µg/mL
Streptococcus pyogenes
  MIC: 0.03 µg/mL (≈ 0.0409 µM)
Enterococcus faecalis
  MIC: > 32 µg/mL
Pseudomonas aeruginosa
  MIC: > 32 µg/mL
[2]
  MIC: 0.25 µg/mL (≈ 0.341 µM)
